Experimental data taken from ChEMBL document CHEMBL4402510, “Caprazamycins: Promising lead structures acting on a novel antibacterial target MraY” (Eur J Med Chem, 2019).
In brackets after ≈: the same amount, converted by molar mass.

Legend:
[1] = test system: Escherichia coli; test: Antibacterial activity against Escherichia coli expressing MraY; format: functional, organism-based
[2] = test system: Mycolicibacterium phlei; test: Antibacterial activity against Mycobacterium phlei; format: functional
[3] = test system: Mycobacterium tuberculosis; test: Antibacterial activity against Mycobacterium tuberculosis H37Rv; format: functional
[4] = Antibacterial activity against Mycobacterium avium subsp. avium ATCC 25291; format: functional
[5] = test system: Mycobacterium avium subsp. paratuberculosis; test: Antibacterial activity against Mycobacterium avium subsp. paratuberculosis ATCC 43015; format: functional
[6] = test system: Staphylococcus aureus; test: Antibacterial activity against methicillin resistant Staphylococcus aureus No. 5; format: functional
[7] = test system: Mycobacterium tuberculosis; test: Antibacterial activity against Mycobacterium tuberculosis Kurono; format: functional
[8] = test system: Mycobacterium tuberculosis; test: Antibacterial activity against Mycobacterium tuberculosis JCM 6384; format: functional
[9] = test system: Mycolicibacterium smegmatis; test: Antibacterial activity against Mycobacterium smegmatis ATCC 607; format: functional
[10] = test system: Mycolicibacterium vaccae; test: Antibacterial activity against Mycobacterium vaccae ATCC 15483; format: functional
[11] = test system: Staphylococcus aureus; test: Antibacterial activity against Staphylococcus aureus FDA 209P; format: functional
[12] = test system: Staphylococcus aureus; test: Antibacterial activity against methicillin resistant Staphylococcus aureus MS16526; format: functional

Row | SMILES | IC50 [1] [µM] | MIC [2] [µg/mL] | MIC [3] [µg/mL] | MIC [4] [µg/mL] | MIC [5] [µg/mL] | MIC [6] [µg/mL] | MIC [7] [µg/mL] | MIC [8] [µg/mL] | MIC [9] [µg/mL] | MIC [10] [µg/mL] | MIC [11] [µg/mL] | other results
1 | CC(C)NC[C@H]1O[C@@H](OC[C@H]2O[C@@H](n3ccc(=O)[nH]c3=O)[C@H](O)[C@@H]2O)[C@H](O)[C@@H]1O | 180 | – | – | – | – | – | – | – | – | – | – | –
2 | CNC[C@H]1O[C@@H](OC[C@H]2O[C@@H](n3ccc(=O)[nH]c3=O)[C@H](O)[C@@H]2O)[C@H](O)[C@@H]1O | 45 | – | – | – | – | – | – | – | – | – | – | –
3 | CCCCCCCCCCCCCCCCCCCCCNC(=O)C1=CCN(C)[C@@H]([C@H](O[C@@H]2O[C@H](CN)[C@@H](O)[C@H]2O)[C@H]2O[C@@H](n3ccc(=O)[nH]c3=O)[C@H](O)[C@@H]2O)C(=O)N1C | – | 12.5 (≈ 14.7 µM) | 1.56 (≈ 1.83 µM) | 50 (≈ 58.7 µM) | > 100 | > 100 | 0.78 (≈ 0.916 µM) | > 100 | 6.25 (≈ 7.34 µM) | 12.5 (≈ 14.7 µM) | 1.56 (≈ 1.83 µM) | MIC [12]: > 100 µg/mL
4 | NC[C@H]1O[C@@H](OC[C@H]2O[C@@H](n3ccc(=O)[nH]c3=O)[C@H](O)[C@@H]2O)C[C@@H]1O | 115 | – | – | – | – | – | – | – | – | – | – | –
5 | CCCCCCNC[C@H]1O[C@@H](OC[C@H]2O[C@@H](n3ccc(=O)[nH]c3=O)[C@H](O)[C@@H]2O)[C@H](O)[C@@H]1O | 130 | – | – | – | – | – | – | – | – | – | – | –
6 | CC/C=C/CCCCCCCCCCOC(=O)C1=CCN(C)[C@@H]([C@H](O[C@@H]2O[C@H](CN)[C@@H](O)[C@H]2O)[C@H]2O[C@@H](n3ccc(=O)[nH]c3=O)[C@H](O)[C@@H]2O)C(=O)N1C | – | 12.5 (≈ 16.6 µM) | 12.5 (≈ 16.6 µM) | 25 (≈ 33.3 µM) | 6.25 (≈ 8.31 µM) | > 100 | 6.25 (≈ 8.31 µM) | 12.5 (≈ 16.6 µM) | 6.25 (≈ 8.31 µM) | 25 (≈ 33.3 µM) | 0.78 (≈ 1.04 µM) | MIC [12]: 25 µg/mL (≈ 33.3 µM)
7 | CCCCCCc1ccc(NC(=O)C2=CCN(C)[C@@H]([C@H](O[C@@H]3O[C@H](CN)[C@@H](O)[C@H]3O)[C@H]3O[C@@H](n4ccc(=O)[nH]c4=O)[C@H](O)[C@@H]3O)C(=O)N2C)cc1 | – | 0.39 (≈ 0.544 µM) | 0.78 (≈ 1.09 µM) | 0.2 (≈ 0.279 µM) | 0.78 (≈ 1.09 µM) | 12.5 (≈ 17.4 µM) | 0.78 (≈ 1.09 µM) | 6.25 (≈ 8.72 µM) | 1.56 (≈ 2.18 µM) | 12.5 (≈ 17.4 µM) | > 100 | –
8 | CN(C)C[C@H]1O[C@@H](OC[C@H]2O[C@@H](n3ccc(=O)[nH]c3=O)[C@H](O)[C@@H]2O)[C@H](O)[C@@H]1O | > 1000 | – | – | – | – | – | – | – | – | – | – | –
9 | NC[C@H]1O[C@@H](OC[C@@H]2CC[C@H](n3ccc(=O)[nH]c3=O)O2)[C@H](O)[C@@H]1O | 120 | – | – | – | – | – | – | – | – | – | – | –
10 | N=C(N)NC[C@H]1O[C@@H](OC[C@H]2O[C@@H](n3ccc(=O)[nH]c3=O)[C@H](O)[C@@H]2O)[C@H](O)[C@@H]1O | 25 | – | – | – | – | – | – | – | – | – | – | –
11 | CCNC[C@H]1O[C@@H](OC[C@H]2O[C@@H](n3ccc(=O)[nH]c3=O)[C@H](O)[C@@H]2O)[C@H](O)[C@@H]1O | 150 | – | – | – | – | – | – | – | – | – | – | –
12 | CC(=O)NC[C@H]1O[C@@H](OC[C@H]2O[C@@H](n3ccc(=O)[nH]c3=O)[C@H](O)[C@@H]2O)[C@H](O)[C@@H]1O | > 1000 | – | – | – | – | – | – | – | – | – | – | –
13 | CCc1ccc(NC(=O)C2=CCN(C)[C@@H]([C@H](O[C@@H]3O[C@H](CN)[C@@H](O)[C@H]3O)[C@H]3O[C@@H](n4ccc(=O)[nH]c4=O)[C@H](O)[C@@H]3O)C(=O)N2C)cc1 | – | 12.5 (≈ 18.9 µM) | 6.25 (≈ 9.46 µM) | 100 (≈ 151 µM) | > 100 | > 100 | 3.13 (≈ 4.74 µM) | > 100 | > 100 | > 100 | > 100 | –
14 | O=CNC[C@H]1O[C@@H](OC[C@H]2O[C@@H](n3ccc(=O)[nH]c3=O)[C@H](O)[C@@H]2O)[C@H](O)[C@@H]1O | > 1000 | – | – | – | – | – | – | – | – | – | – | –
15 | O=c1ccn([C@@H]2O[C@H](CO[C@@H]3O[C@H](CO)[C@@H](O)[C@H]3O)[C@@H](O)[C@H]2O)c(=O)[nH]1 | > 1000 | – | – | – | – | – | – | – | – | – | – | –
16 | C=CCCCCCCCCCOC(=O)C1=CCN(C)[C@@H]([C@H](O[C@@H]2O[C@H](CN)[C@@H](O)[C@H]2O)[C@H]2O[C@@H](n3ccc(=O)[nH]c3=O)[C@H](O)[C@@H]2O)C(=O)N1C | – | 50 (≈ 70.4 µM) | 12.5 (≈ 17.6 µM) | 12.5 (≈ 17.6 µM) | 6.25 (≈ 8.81 µM) | > 100 | 12.5 (≈ 17.6 µM) | 12.5 (≈ 17.6 µM) | 25 (≈ 35.2 µM) | 50 (≈ 70.4 µM) | 1.56 (≈ 2.2 µM) | MIC [12]: > 100 µg/mL
